# In publication PMC8620242 (Journal of Advanced Research, 2021):
# How the values were obtained:
# SARS-CoV-2 spike protein = SARS-CoV-2 spike protein (Severe acute respiratory syndrome coronavirus 2, UniProt P0DTC2); experiment: biochemical; assay type: binding
# SARS-CoV-2 pseudovirus = assay type: cell-based
# [1] = molecular target: RBD of SARS-CoV-2 spike protein (Severe acute respiratory syndrome coronavirus 2, UniProt P0DTC2); experiment: biochemical; assay type: binding
# nsp7 = nsp7 (Severe acute respiratory syndrome coronavirus 2, UniProt P0DTD1); experiment: biochemical; assay type: binding, SARS-CoV-2
# nsp8 = nsp8 (Severe acute respiratory syndrome coronavirus 2, UniProt P0DTD1); experiment: biochemical; assay type: binding, SARS-CoV-2
# in vivo [2] = experiment: in vivo; set-up: species or system rats; settings: male, Sprague-Dawley, rat, po, 40 mg/kg
# [3] = male, Sprague-Dawley, rat, in vivo
# in vivo [4] = settings: male, Sprague-Dawley, rat, po, 40 mg/kg
# Vero E6 cells = assay type: cell-based; settings: CCK-8
# ACE2 = settings: read-out: KD for binding to ACE2; cited from earlier work
molecule,measurement,setting,value
"CC1(C)[C@@H](O)CC[C@]2(C)[C@H]3C(=O)C=C4[C@@H]5C[C@@](C)(C(=O)O)CC[C@]5(C)CC[C@@]4(C)[C@]3(C)CC[C@@H]12 [GA, glycyrrhetinic acid]",IC50,SARS-CoV-2 spike protein,10.9 µM
same,inhibition at 10 µM,SARS-CoV-2 spike protein; read-out: inhibition rate against SARS-CoV-2 spike protein by ELISA,51.9%
same,"inhibitory activity in blocking, attachment and entry procedures",SARS-CoV-2 pseudovirus,significant inhibitory activities
same,Kd,[1],2.33 µM
same,Kd,nsp7,384 µM
same,Kd,nsp8,91.2 µM
same,Tmax,in vivo [2],2 h
same,half-life,in vivo [2],18.2 h
same,maximum plasma concentration,[3],5.68 µM
same,half-life,in vivo [4],9.91 h
"CC1(C)[C@@H](O[C@H]2O[C@H](C(=O)O)[C@@H](O)[C@H](O)[C@H]2O[C@@H]2O[C@H](C(=O)O)[C@@H](O)[C@H](O)[C@H]2O)CC[C@]2(C)[C@H]3C(=O)C=C4[C@@H]5C[C@@](C)(C(=O)O)CC[C@]5(C)CC[C@@]4(C)[C@]3(C)CC[C@@H]12 [GA-gg, glycyrrhizic acid]",activity in the pseudovirus system,SARS-CoV-2 pseudovirus,weak activities
same,binding to RBD,[1]; SPR,very weak bindings
same,maximum plasma concentration,[3],10.23 µM
C=C(C)[C@@H]1CC[C@]2(C(=O)O)CC[C@]3(C)[C@H](CC[C@@H]4[C@@]5(C)CC[C@H](O)C(C)(C)[C@@H]5CC[C@]43C)[C@@H]12 [betulinic acid],IC50,SARS-CoV-2 spike protein,15.1 µM
same,cytotoxicity,Vero E6 cells,remarkable cytotoxicity
C[C@H]1[C@H](C)CC[C@]2(C(=O)O)CC[C@]3(C)C(=CC[C@@H]4[C@@]5(C)CC[C@H](O)C(C)(C)[C@@H]5CC[C@]43C)[C@H]12 [ursolic acid],IC50,SARS-CoV-2 spike protein,9 µM
same,cytotoxicity,Vero E6 cells,remarkable cytotoxicity
dalbavacin,Kd,ACE2,0.147 µM
